From PubChem BioAssay (NCI)
Where “and” joins values, the source holds several entries; their conditions need not be identical. Identical values can stand only once.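 Exposure lasted 48 hours, with cells grown in 96-well plates and compounds tested at five concentrations. The concentration for 50% growth inhibition is given as GI50. TGI: total growth inhibition.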

System: MDA-MB-468 breast
Experiment: NCI anticancer screen, dose series, 48 h

SMILES	GI50	TGI
COc1ccccc1/C=C1\COc2ccc(O)c(O)c2C1=O	1.24 µM	3.29 µM
COc1ccc(CN2CCc3c(Cl)nc(N)nc3C2=O)c(OC)c1	5.85 µM	33.1 µM
COC12C=C/C(=C(/C(=O)OCc3ccncn3)C(=O)CCCCCCCCC3(OC)C=C/C(=C(/C(=O)OCc4ccncn4)C(=O)CCCCCCCC1)O3)O2	0.239 µM	0.682 µM
COc1ccc([C@H]2c3cc(OC)c(OC)cc3C=C(C=O)C2CO)cc1OC (some centres not stated)	2.55 µM	25.1 µM
COc1ccc(C(=O)c2cc3c(N)c(C(=O)Nc4cccc(Cl)c4)sc3nc2C)cc1	0.859 µM	2.83 µM
CC(C)Oc1cc(OCC(=O)O)cc(C(=O)N(CCC(N)=O)C(=O)Nc2ccc(C(=O)O)cc2OC(C)C)c1	> 100 µM	> 100 µM
CCCCc1ccc2nc(NC(=O)OC)[nH]c2c1	0.107 µM	1.6 µM
COc1cc([C@@H]2c3cc4c(cc3[C@H](OC3OC5COC(c6ccccc6)OC5C(O)C3O)[C@H]3COC(=O)[C@H]23)OCO4)cc(OC)c1OC (some centres not stated)	0.472 µM	19.6 µM
O=C1CCC/C=C\C[C@H]2C=C(Cl)C(=O)/C2=C/C[C@H](CCCCC(F)(F)F)OC(=O)CCC/C=C\C[C@H]2C=C(Cl)C(=O)/C2=C/C[C@H](CCCCC(F)(F)F)O1	0.239 µM	0.721 µM
O=C(Nc1ccccc1)c1cc2c(cc1Cl)Sc1nccn1S2(=O)=O	5.47 µM	26.3 µM
CCc1nc(N)nc(N)c1-c1ccc(Cl)cc1	11.4 µM	> 100 µM
CC[C@]1(O)C[C@@H]2CN(Cc3c([nH]c4ccccc34)[C@@](C(=O)OC)(c3cc4c(cc3OC)N(C)[C@H]3[C@@](O)(C(=O)OC)[C@H](OC(C)=O)[C@]5(CC)[C@@H]6C[C@@H]6CN6CC[C@]43[C@@H]65)C2)C1	0.017 µM	
CCOC(=O)c1c(NC(=O)c2ccc(C(F)(F)F)cc2)sc2c3c(ccc12)OCN(C)C3	1.56 µM	3.18 µM
CC/C=C/[C@@H]1C=C[C@@H]2CCC[C@H]2[C@@H]1CC[C@H](O)[C@H](C)N	1.24 µM	2.69 µM
Cc1cc(Cl)n2c(nc3ccccc32)c1C#N	0.394 µM	1.84 µM
CCN(CC)CCCCCCCCNc1c2ccc(Cl)cc2nc2ccc(OC)cc12	1.44 µM	2.77 µM
CC(C)(O)Cn1c(=O)c(Oc2ccc(F)cc2F)cc2cnc(NC3CCOCC3)nc21	> 25 µM	> 25 µM
O=C(Nc1ccc(Cl)c(Cl)c1)Nc1ccc(Cl)c([N+](=O)[O-])c1	0.884 µM	3.52 µM
Cc1ccc(CCC(=O)Nc2ncc(Cc3cc(Cl)ccc3Cl)s2)o1	0.266 µM	20.7 µM
CCOC(=O)c1cnc2ccc(Cl)cc2c1NCCCN(C)C	16.2 µM	45.4 µM
COc1c(O)c2ccccc2c2cc(O)ccc12	3.7 µM	15 µM
CCN1CCC(C(=O)Nc2n[nH]c3nnc(-c4cccc(F)c4F)cc23)CC1	2.32 µM	6.78 µM
CC/C(=C(\c1ccccc1)c1ccc(OCCN(C)C)cc1)c1ccccc1	1.34 µM and 1.95 µM and 3.92 µM	6.48 µM and 5.44 µM and 7.97 µM
Cc1cc2c(-c3nc4ccccc4[nH]3)c(O)c(O)cc2c(O)c1-c1c(C)cc2c(-c3nc4ccccc4[nH]3)c(O)c(O)cc2c1O	0.02 µM	0.601 µM
CCN(CC)CCn1c(=N)n(CC(O)c2ccc(Cl)c(Cl)c2)c2ccccc21 (configuration not stated)	2.49 µM	8.09 µM
C=C1C(=O)O[C@@H]2[C@@H]3O[C@@](C)(CC/C=C(\C)CCC[C@@H]2C)[C@H](O)C[C@@H]13	1.15 µM	2.8 µM
N#C/C(=C\c1ccc(-c2ccc(F)cc2)o1)C(=O)Nc1ncc(Cc2ccc(Cl)cc2Cl)s1	2.17 µM	5.01 µM
N#Cc1c(N)nn(C(=O)c2ccc(NC(=O)c3ccccn3)cc2)c1-c1ccc(Cl)cc1	2.43 µM	6.64 µM
CCN1CCN(C(=O)[C@]23CC[C@@H](C)[C@H](C)[C@@H]2C2=CC[C@@H]4[C@@]5(C)C/C(=C/c6cccnc6)C(=O)C(C)(C)[C@@H]5CC[C@@]4(C)[C@]2(C)CC3)CC1	1.65 µM	3.43 µM
